Patent publication US10174006B2, “Topical aqueous ophthalmic compositions containing a 1H-indole-1-carboxamide derivative and use thereof for treatment of ophthalmic disease” (Novartis AG, priority 2013, dated 2019)
In brackets after ≈: the same amount, converted by molar mass. Read-outs that look alike come from different tables or passages of the source.

Experiments:
[1] = Solubility in 5% HP-β-CD at pH 4.5 versus pH 7 (Table II); format: physicochemical; conditions: for Solubility Enhancement (fold): compared to intrinsic solubility at pH 7
Excerpt: Thus, depending upon the type of composition, the desired pH of the composition may be different. For compositions that include the cyclodextrin derivative, particularly the β-cyclodextrin derivative, γ-cyclodextrin derivative or combination thereof, and even more typically hydroxypropy-β-cyclodextrin, hydroxypropyl-γ-cyclodextrin or a combination thereof, the pH is preferably relatively low. The relatively low pH is typically at least 3.0, more typically at least 4.0 and even more typically at least 4.3, but is typically no greater than 5.5, more typically no greater than 5.0 and even more typically no greater than 4.7. It is also preferable that the pH of the composition be at least 4.0 but no greater than 5.0 and more preferably at least 4.3 but no greater than 4.7. Such compositions will typically be solutions in which the 1H-indole-1-carboxamide is dissolved.

[2] = Ocular tissue and plasma PK after repeated t.i.d. monocular dosing for 7 days; format: in vivo, pigmented rabbits; conditions: 2% t.i.d. 7 days
Method: In the contralateral undosed eyes of the 2% t.i.d treatment group, N-(1-methyl-5-(trifluoromethyl)-1H-pyrazol-3-yl)-5-((6-((methylamino)methyl)pyrimidin-4-yl)oxy)-1H-indole-1-carboxamide exposure was lower with the AUClast values of 1260 ng*h/g in cornea, 293000 ng*h/g in RPE/choroid and 3640 ng*h/g in retina.
PK parameters of 1H-indole-1-carboxamide in ocular tissues and plasma following repeated t.i.d. monocular OD dosing for 7 days of 2% N-(1-methyl-5-(trifluoromethyl)-1H-pyrazol-3-yl)-5-((6-((methylamino)methyl)pyrimidin-4-yl)oxy)-1H-indole-1-carboxamide formulation in pigmented rabbits employing suspension C-2 in Table B below.

[3] = Zeta potential of LHA510 particles with additives; format: physicochemical; conditions: dispersant deionized water
Method: It was determined that NaCMC unexpectedly provide the 1H-indole-1-carboxamide with desired Zeta Potential. In particular, NaCMC creates repulsive forces between the particles of 1H-indole-1-carboxamide.

[4] = Solubility in 8% HP-γ-CD in acetate buffer with different pH adjustment agents (Table III); format: physicochemical
[5] = Ocular tissue and plasma PK after single unilateral topical dose; format: in vivo, pigmented NZW×NZR rabbits; conditions: pigmented NZW×NZR, rabbit, single unilateral 30 μL dose at 0.5%, 1% and 2%
Method: A single unilateral dose (30 μL) of a preferred ophthalmic suspension composition (i.e., suspension C-2 in Example 3 below) of the present invention was dosed onto the right (OD) eye of pigmented NZW×NZR rabbits at 0.5%, 1%, and 2% N-(1-methyl-5-(trifluoromethyl)-1H-pyrazol-3-yl)-5-((6-((methylamino)methyl)pyrimidin-4-yl)oxy)-1H-indole-1-carboxamide.

[6] = Equilibrium solubility in HPβCD or HPγCD in acetate (first Table I); format: physicochemical; conditions: for solubility at 3 day: thermodynamic from solid, read-out: 1H-indole-1-carboxamide Solubility
[7] = as above; format: physicochemical; conditions: for solubility at 3 day: thermodynamic from solid, read-out: 1H-indole-1-carboxamide Solubility; remark: listed apart in the source
Excerpt: Hydroxypropyl-γ-cyclodextrin is preferred for dissolution of the 1H-indole-1-carboxamide.

[8] = NZW×NZR (pigmented), rabbit, RPE/choroid of the dosed eye (OD), topical or ocular, 2 % formulation, RPE/Choroid OD (dosed eye)
[9] = NZW×NZR (pigmented), rabbit, cornea of the dosed (OD) eye, topical or ocular, Cornea OD (dosed eye)
[10] = NZW×NZR (pigmented), rabbit, cornea of the undosed (OS) eye, topical or ocular, Cornea OS (undosed eye)
[11] = pigmented NZW×NZR, rabbit, RPE/choroid of the undosed (OS) eye, topical or ocular, RPE/Choroid OS (undosed eye)
[12] = pigmented NZW×NZR, rabbit, retina of the dosed (OD) eye, topical or ocular, Retina OD (dosed eye)
[13] = pigmented NZW×NZR, rabbit, retina of the undosed (OS) eye, topical or ocular, Retina OS (undosed eye)

Structure (SMILES): CNCc1cc(Oc2ccc3c(ccn3C(=O)Nc3cc(C(F)(F)F)n(C)n3)c2)ncn1 [LHA510, N-(1-methyl-5-(trifluoromethyl)-1H-pyrazol-3-yl)-5-((6-((methylamino)methyl)pyrimidin-4-yl)oxy)-1H-indole-1-carboxamide]
- solubility ([1]; 5% HP-β-CD in acetate buffer, aqueous with cosolvent or surfactant or cyclodextrin, 5% HP-β-CD/Acetate buffer/pH 4.5, final pH 4.64, read-out: 1H-indole-1-carboxamide Solubility): 11.7 mg/mL
- solubility ([1]; 5% HP-β-CD in phosphate buffer, aqueous with cosolvent or surfactant or cyclodextrin, 5% HP-β-CD/Phosphate buffer/pH 7, final pH 7.06, read-out: 1H-indole-1-carboxamide Solubility): 1.01 mg/mL
- Solubility Enhancement (fold) ([1]; 5% HP-β-CD/Acetate buffer/pH 4.5): 1667 fold
- Solubility Enhancement (fold) ([1]; 5% HP-β-CD/Phosphate buffer/pH 7): 144 fold
- solubility ([1]; pH 7, aqueous buffer, read-out: intrinsic solubility): ~0.007 mg/mL
- plasma accumulation [2]: no evidence of plasma accumulation
- AUClast Mean ([2]; Cornea OD (dosed eye), Tlast = 96 h): 317000 ng·h/g
- AUClast Mean ([2]; Cornea OS (undosed eye), Tlast = 96 h): 1260 ng·h/g
- Cmax [2, 8]: 6410 ng/g
- Tmax [2, 8]: 0.5 h
- Cmax [2, 9]: 32300 ng/g
- Tmax [2, 9]: 1 h
- Cmax [2, 10]: 47.5 ng/g
- Tmax [2, 10]: 0 h
- Tmax ([2]; NZW×NZR (pigmented), rabbit, topical or ocular, Plasma): 0.5 h
- Cmax ([2]; NZW×NZR (pigmented), rabbit, topical, Plasma): 1.85 ng/mL
- AUC(0-t) ([2]; NZW×NZR (pigmented), rabbit, topical, Plasma, Tlast = 96 h, read-out: AUClast Mean): 5.12 ng·h/mL
- AUClast Mean ([2]; RPE/Choroid OD (dosed eye), Tlast = 96 h): 453000 ng·h/g
- AUClast Mean ([2]; RPE/Choroid OS (undosed eye), Tlast = 96 h): 293000 ng·h/g
- local penetration in the dosed eyes as share of the total AUClast ([2]; RPE/choroid): 37.1%
- AUClast Mean ([2]; Retina OD (dosed eye), Tlast = 96 h): 8400 ng·h/g
- AUClast Mean ([2]; Retina OS (undosed eye), Tlast = 96 h): 3640 ng·h/g
- Cmax [2, 11]: 3950 ng/g
- Tmax [2, 11]: 18 h
- Cmax [2, 12]: 122 ng/g
- Tmax [2, 12]: 18 h
- Cmax [2, 13]: 67.2 ng/g
- Tmax [2, 13]: 18 h
- local penetration in the dosed eyes as share of the total AUClast ([2]; retina): 56.7%
- Zeta Potential ([3]; Additive: 10 mM NaCl): 0.6 mV
- Zeta Potential ([3]; Additive: 0.1% Pluronic F127): −1.09 mV
- Zeta Potential ([3]; Additive: 0.5% Sodium CMC 7LF PH): −40.3 mV
- Zeta Potential ([3]; Additive: 1% Pluronic F127): −0.962 mV
- Zeta Potential ([3]; Additive: 1% Polyvinyl phosphoric acid (PVPA)): −0.835 mV
- Zeta Potential ([3]; Additive: 1% Povidone (PVP 29/32)): 0 mV
- Zeta Potential ([3]; Additive: 1% Sodium CMC 7LF PH): −47.8 mV
- Zeta Potential ([3]; Additive: 1% Vitamin E TPGS): −1.77 mV
- Zeta Potential ([3]; Additive: None): −2.58 mV
- solubility ([4]; pH 4.732, aqueous with cosolvent or surfactant or cyclodextrin, pH adjustment agent 1N Glucoronic acid, final pH 4.732, read-out: 1H-indole-1-carboxamide Solubility): 36 mg/mL (≈ 80.8 mM)
- solubility ([4]; pH 4.872, aqueous with cosolvent or surfactant or cyclodextrin, pH adjustment agent 1N Citric acid, final pH 4.872, read-out: 1H-indole-1-carboxamide Solubility): 6.88 mg/mL (≈ 15.4 mM)
- solubility ([4]; pH 4.887, aqueous with cosolvent or surfactant or cyclodextrin, pH adjustment agent 1N Acetic acid, final pH 4.887, read-out: 1H-indole-1-carboxamide Solubility): 30.3 mg/mL (≈ 68 mM)
- solubility ([4]; pH 4.887, aqueous with cosolvent or surfactant or cyclodextrin, pH adjustment agent 1N Hydrochloric acid, final pH 4.887, read-out: 1H-indole-1-carboxamide Solubility): 15.5 mg/mL (≈ 34.7 mM)
- solubility ([4]; pH 4.902, aqueous with cosolvent or surfactant or cyclodextrin, pH adjustment agent 1N Methanesulfonic acid, final pH 4.902, read-out: 1H-indole-1-carboxamide Solubility): 32.6 mg/mL (≈ 73.1 mM)
- solubility ([4]; pH 4.955, aqueous with cosolvent or surfactant or cyclodextrin, pH adjustment agent 1N Lactic acid, final pH 4.955, read-out: 1H-indole-1-carboxamide Solubility): 33 mg/mL (≈ 74.2 mM)
- solubility ([4]; pH 4.973, aqueous with cosolvent or surfactant or cyclodextrin, pH adjustment agent 1N Sulfuric acid, final pH 4.973, read-out: 1H-indole-1-carboxamide Solubility): 35.6 mg/mL (≈ 79.9 mM)
- solubility ([4]; pH 5.014, aqueous with cosolvent or surfactant or cyclodextrin, pH adjustment agent 1N Phosphoric acid, final pH 5.014, read-out: 1H-indole-1-carboxamide Solubility): 25.4 mg/mL (≈ 57.1 mM)
- Tmax ([5]; RPE/choroid): 18 to 48 h
- Tmax ([5]; all ocular tissues and plasma except RPE/choroid): 0.5 to 3 h
- 1H-indole-1-carboxamide Solubility ([6]; 1% HPβCD in Acetate, pH 4.584, equilibrium solubility at day 3): 7.28 mg/mL
- solubility at 3 day ([6]; 1% HPβCD in acetate, pH 4.584, aqueous with cosolvent or surfactant or cyclodextrin, 1% HPβCD in Acetate, pH 4.584, equilibrium solubility at day 3): 7.5 mg/mL (≈ 16.8 mM)
- solubility at 3 day ([6]; 1% HPγCD in acetate, pH 4.607, aqueous with cosolvent or surfactant or cyclodextrin, 1% HPγCD in Acetate, pH 4.607, equilibrium solubility at day 3): 9.28 mg/mL (≈ 20.8 mM)
- 1H-indole-1-carboxamide Solubility ([6]; 2.5% HPβCD in Acetate, pH 4.606, equilibrium solubility at day 3): 12.45 mg/mL
- solubility at 3 day ([6]; 2.5% HPβCD in acetate, pH 4.606, aqueous with cosolvent or surfactant or cyclodextrin, 2.5% HPβCD in Acetate, pH 4.606, equilibrium solubility at day 3): 12.5 mg/mL (≈ 28 mM)
- 1H-indole-1-carboxamide Solubility ([6]; 5% HPβCD in Acetate, pH 4.670, equilibrium solubility at day 3): 15.93 mg/mL
- solubility at 3 day ([6]; 5% HPβCD in acetate, pH 4.67, aqueous with cosolvent or surfactant or cyclodextrin, 5% HPβCD in Acetate, pH 4.670, equilibrium solubility at day 3): 19.6 mg/mL (≈ 44 mM)
- 1H-indole-1-carboxamide Solubility ([6]; 8% HPβCD in Acetate, pH 4.530, equilibrium solubility at day 3): 25.67 mg/mL
- solubility at 3 day ([6]; 8% HPβCD in acetate, pH 4.53, aqueous with cosolvent or surfactant or cyclodextrin, 8% HPβCD in Acetate, pH 4.530, equilibrium solubility at day 3): 25.7 mg/mL (≈ 57.6 mM)
- solubility at 3 day ([6]; 8% HPγCD in acetate, pH 4.58, aqueous with cosolvent or surfactant or cyclodextrin, 8% HPγCD in Acetate, pH 4.580, equilibrium solubility at day 3): 30.7 mg/mL (≈ 68.8 mM)
- 1H-indole-1-carboxamide Solubility ([6]; 10% HPβCD in Acetate, pH 4.610, equilibrium solubility at day 3): 30.57 mg/mL
- solubility at 3 day ([6]; 10% HPβCD in acetate, pH 4.61, aqueous with cosolvent or surfactant or cyclodextrin, 10% HPβCD in Acetate, pH 4.610, equilibrium solubility at day 3): 30.6 mg/mL (≈ 68.7 mM)
- 1H-indole-1-carboxamide Solubility ([6]; 10% HPγCD in Acetate, pH 4.668, equilibrium solubility at day 3): 34.56 mg/mL
- 1H-indole-1-carboxamide Solubility ([7]; 1% HPγCD in Acetate, pH 4.607, equilibrium solubility at day 3): 9.09 mg/mL
- 1H-indole-1-carboxamide Solubility ([7]; 2.5% HPγCD in Acetate, pH 4.555, equilibrium solubility at day 3): 14.69 mg/mL
- solubility at 3 day ([7]; 2.5% HPγCD in acetate, pH 4.555, aqueous with cosolvent or surfactant or cyclodextrin, 2.5% HPγCD in Acetate, pH 4.555, equilibrium solubility at day 3): 14.7 mg/mL (≈ 33.1 mM)
- 1H-indole-1-carboxamide Solubility ([7]; 5% HPγCD in Acetate, pH 4.505, equilibrium solubility at day 3): 22.34 mg/mL
- solubility at 3 day ([7]; 5% HPγCD in acetate, pH 4.505, aqueous with cosolvent or surfactant or cyclodextrin, 5% HPγCD in Acetate, pH 4.505, equilibrium solubility at day 3): 21.9 mg/mL (≈ 49.1 mM)
- 1H-indole-1-carboxamide Solubility ([7]; 8% HPγCD in Acetate, pH 4.580, equilibrium solubility at day 3): 30.60 mg/mL
- solubility at 3 day ([7]; 10% HPγCD in acetate, pH 4.668, aqueous with cosolvent or surfactant or cyclodextrin, 10% HPγCD in Acetate, pH 4.668, equilibrium solubility at day 3): 34.3 mg/mL (≈ 77 mM)
